# Columns and labels:
# human T-cell cultures = assay: Mixed lymphocyte reaction (allo-antigenic T-cell proliferation); assay type: cell-based; details: B27.29 affinity purified MUC-1 mucin, various doses, in vitro
# Description: The mixed lymphocyte reaction is conducted by mixing the lymphocytes of HLA disparate individuals in in vitro tissue cultures. The “responder population” in this experiment is purified T-cells from one population, while the “stimulator” population in this experiment is the adherent antigen presenting cells obtained from an HLA mismatched individual donor. The two cell populations were mixed and cultured either in the presence or absence of various doses of B27.29 affinity purified MUC-1 mucin that was purified from a pleural effusion fluid.
# GZ-Hi tumor cells = assay: Tumor take after i.v. MUC-1 mucin and subcutaneous tumor challenge; assay type: in vivo; details: CB6 mice, MUC-1 mucin 20 micrograms i.v. on days -2, +2, +6; 1x10^6 GZ-Hi cells s.c.; observed 8 weeks
# Description: The procedures employed in this example are similar to those described in Fung, et al. Cancer Research 51:1170-1176 (1991), which is hereby incorporated by reference. However, in the present example, the human MUC-1 system was used instead of the epiglycanin system.
# CB6 mice were injected intravenously with MAb B27.29 affinity purified MUC-1 mucin (20 micrograms each treatment or approximately 400 units) prior to (day-2) and after (days +2 and +6) an attempted tumor challenge. Affinity purified mucin had been prepared by affinity adsorption on a B 27.29 CnBr-Sepharose matrix from a pleural effusion fluid obtained from a patient with adenocarcinoma of the ovaries. MUC-1 mucin treated and control mice were challenged with 1×10^6 GZ-Hi tumor cells injected into the subcutaneous space along the flank. Mice were observed by palpation and visual inspection at the injection site for the occurrence of tumors over a period of 8 weeks.
# Purified T cells = assay: T cell proliferation assay (allo MLR, 3H-thymidine incorporation); assay type: cell-based, human; details: 10 ug/ml, allo PBL stimulated T cells
# Description: Enriched T cell populations were purified from buffy coats obtained from normal red cross donors using nylon wool columns by previously reported procedures. […] For the allo MLR, mitomycin C treated allogeneic PBLs were cocultured with purified T cells in the presence or absence of affinity purified MUC-1 mucin or control OSM. In most of the experiments, the T cells were cultured 6-7 days in AIM V medium in the absence or presence of MUC-1, MUC-1 derivative or OSM at the indicated concentration. After this time, the T cells were harvested, washed and cultured as indicated.
# Purified T cells (10^6/ml) were cultured in AIM V medium with allo PBLs in the absence or presence of MUC-1, MUC-1 derivative or OSM 10 ug/ml for 6-7 days. T cells were harvested and plated in 96 well flat bottom plates at 10^5/well with allo PBLs (10^5/well), in the presence or absence of affinity purified MUC-1, MUC-1 derivative or OSM. Control cultures were treated with either 50 U/ml IL-2 or 1 ug/ml anti-CD28 Mab. After 4 days of culture, ^3H-thymidine (1 uCi/well) was added. The cells were harvested on the fifth day and ^3H-thymidine incorporation was measured by liquid scintillation.
# Synthetic peptides, as described in Example 8, corresponding to 3, 4, 5 or 6 MUC-1 repeats, were added at 10 ug/ml to allo cultures and T cell proliferation was measured at 14 days from the start of culture. […]
# [1] = target: T1, recombinant human ICAM-1-Ig fusion protein (Homo sapiens, UniProt P05362); assay: Tumor cell-immobilized ICAM-1 adhesion assay; assay type: cell-based; details: antibodies 10 or 20 ug/mL, soluble MUC-1 10 ug/mL
# T1 construct: coated with 50 uL of a solution with 20 ug/mL recombinant soluble ICAM-1 in PBS; Ig (immunoglobulin) fusion partner
# Description: 96 well tissue culture plates were coated with 50 uL of a solution with 20 ug/mL recombinant soluble ICAM-1 in PBS for 1 hr at room temperature. Wells were then blocked with 1% BSA for 2 hr at 37 C. and washed four times with PBS. Antibodies (10 ug/mL) (anti-ICAM-1 164B, 18E3D, 84H10, anti-E selectin 1.2B6) and soluble MUC-1 (10 ug/mL) were added to the wells for 90 min. at room temperature. Wells were then washed again before addition of cells. BCECF labeled tumor cells were pretreated +/− 20 ug/mL of anti-MUC-1 (B27.29, or DF3P) and were then added to the appropriate wells for 40 min. at 37 C. Wells were then washed and percent adhesion was then determined as described in the tumor cell—endothelial cell adhesion assay.
# To exclude the possibility that adhesion was being mediated by endothelial molecules other than ICAM-1, the adhesion of the MUC-1 transfectants was studied using immobilized recombinant human ICAM-1-Ig fusion protein. Adhesion was compared to Bovine Serum Albumin and Collagen type I as controls.
# T1 sequence (P05362 28-480 limits assumed): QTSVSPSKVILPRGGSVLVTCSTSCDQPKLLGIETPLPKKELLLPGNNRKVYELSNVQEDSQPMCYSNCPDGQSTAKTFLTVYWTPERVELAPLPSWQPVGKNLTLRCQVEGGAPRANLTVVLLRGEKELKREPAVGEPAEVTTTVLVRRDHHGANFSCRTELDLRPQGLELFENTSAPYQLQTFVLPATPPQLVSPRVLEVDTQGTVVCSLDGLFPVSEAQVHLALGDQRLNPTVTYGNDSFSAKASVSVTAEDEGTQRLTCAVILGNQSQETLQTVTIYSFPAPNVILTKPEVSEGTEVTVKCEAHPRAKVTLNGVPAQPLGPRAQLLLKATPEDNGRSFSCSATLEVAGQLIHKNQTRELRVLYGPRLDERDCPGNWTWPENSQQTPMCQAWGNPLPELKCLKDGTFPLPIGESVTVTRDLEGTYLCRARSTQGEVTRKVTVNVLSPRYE
substance,measurement,setting,value
MUC-1: MAb B27.29 affinity purified human MUC-1 mucin from pleural effusion or ascites fluid of cancer patients,inhibition of T-cell proliferation against a strong allo-antigenic stimulus,human T-cell cultures,strongly inhibits
same,% Tumor Take,GZ-Hi tumor cells,100%
same,reduction of T cell proliferation relative to control,Purified T cells,inhibition of T cell proliferation
same,inhibition of GZHi adhesion to immobilized ICAM-1,[1],equally effective at blocking adhesion
